# Tests used:
# [1] = test system: LDLR mRNA expression in HepG2 cells; assay: LDLR mRNA expression in HepG2 cells, semi-quantitative RT-PCR; type: cell-based, human; settings: 8 hours, FIG. 1
# Method: HepG2 cells obtained from American Tissue Culture Collection (Manassas, Va., USA) were seeded in 6-well culture plates at a density of 0.8×10^6 cells/well cultured in EMEM containing 0.5% FBS and were treated with each purified compound at indicated doses for 8 hours. Total RNA was isolated, and 2 μg per sample was reverse transcribed with random primers using M-MLV (Promega) at 37° C. for 1 hour. PCR was carried out at 94° C. for 30 sec, 60° C. for 30 sec, and 72° C. for 30 sec with initial activation of the enzyme at 94° C. for 1 minute. Thirty cycles were performed for LDLR and GAPDH. PCR was performed using primers HLDLR-up and HLDLR-lo for LDLR and primers HGAPDH-up and HGAPDH-lo for GAPDH. The PCR products were separated on a 1% agarose gel and the band intensity was quantitated. LDLR mRNA levels were corrected by measuring GAPDH mRNA levels.
# [2] = test system: LDLR ligand uptake activity in HepG2 cells; assay: DiI-LDL uptake in HepG2 cells (Example 6); type: cell-based, human; settings: 20 hours; also: key: +: slightly increased fluorescent intensity over control; ++: modestly increased fluorescent intensity over control; +++: strongly increased fluorescent intensity over control
# Method: HepG2 cells (2×10^5 cells/well) in 24-well culture plates were treated with various compounds at indicated concentrations for 20 hours. The fluorescent 1.1′-dioctadecyl-3,3,3′,3′-tetramethylindocarbocyanin perchlorate (DiI-LDL) (Biomedical Technologies, Stoughton, Mass.) at a concentration of 2 μg/mL was added to cells at the end of treatment. After 4 hours, the medium was removed, cells were washed with cold PBS, and were examined immediately under a fluorescent microscope (Nikon) at 200× amplification. The fluorescent intensity in compound-treated cells was compared to that in untreated control cells. […] In these experiments berberine chloride was used for comparison.
# [3] = test system: intracellular triglyceride in HepG2 cells; assay: Reduction of intracellular triglyceride in HepG2 cells (Example 8); type: cell-based, human
# Source text: Berberine chloride was used for comparison. The amount of TG in untreated control cells was defined as 100% and the amounts of TG in compound-treated cells were divided to that value.
# [4] = test system: LDLR mRNA expression in HepG2 cells; assay: LDLR mRNA expression in HepG2 cells, quantitative real-time RT-PCR (Example 7); type: cell-based, human; settings: dose less than or equal to 10 μM, 24 hours
# Method: In yet another experiment, HepG2 cells were treated with various compounds for 24 hours at the indicated doses. Total RNA was isolated and 2 μg was used to generate cDNA in a reaction containing random primers and M-MLV at 37° C. for 1 hour in a volume of 25 μL. Real-time PCR was performed on the cDNA using MCEP REALPLEX 2 SYSTEM (Eppendorf) and Universal MasterMix (Applied Biosystems). Human LDLR and GAPDH Pre-Developed TaqMan Assay Reagents (Applied Biosystems) were used to assess the levels of mRNA expressions in HepG2. The levels of LDLR mRNA were normalized to that of GAPDH. Each RNA samples was assayed in triplicate. The abundance of LDLR mRNA in untreated cells was defined as 1, and the amounts of LDLR mRNA from compound-treated cells were plotted relative to that value in FIG. 2B. The data shown are mean±s.d.
# Activities of some compounds of Formulas I, II and EE on LDLR mRNA expression were determined. HepG2 cells were treated with new compounds individually at a dose less than or equal to 10 μM for 24 hours. […] In these experiments, berberine chloride was included for comparison.
# [5] = Stability of compound 69 under cell culture conditions, LC-MS of medium; type: in vitro ADME, human; settings: for Peak Area m/z 466.1: 20 μM in HepG2 culture medium
# Method: HepG2 cells were cultured in 6-well cell culture plate in EMEM containing 0.5% FBS overnight. Compound 69+ was added to the culture medium to a final concentration of 20 μM. Medium was collected at 0 (control), 4, 8, or 24 hours after the compound addition.
# The collected media were analyzed by LC-MS on a Thermo Fisher Scientific Surveyor HPLC system and LCQ ion trap MS with electrospray ionization source. A 50×2. 1 mm Hypersil Gold C18 3 um column was used with a flow rate of 200 uL/min. The method conditions were 98% A (0.1% formic acid in water)/2% B (0.1% formic acid in acetonitrile) then a gradient to 95% B in 10 minutes. The injection volume was 10 uL.
smiles,measurement,setting,value
"COc1cc2c(cc1OC)[C@H]1Cc3ccc(OC)c(OC)c3CN1CC2 [14R-(+)-THP, 14R-tetrahydropalmatine, reference compound]",effects on LDLR mRNA expression,[1],potent and dose-dependent effects
same,Activity on DiI-LDL uptake,"[2]; B, compound dose ≦40 μM",++
"COc1cc2c(cc1OC)[C@H]1[C@@H](C)c3ccc(OC)c(OC)c3CN1CC2 [14R,13S-(+)-CRDL]",effects on LDLR mRNA expression,[1],potent and dose-dependent effects
same,Activity on DiI-LDL uptake,"[2]; B, compound dose ≦40 μM",++
"CCOC(=O)COc1c(OC)ccc2c1CN1CCc3cc4c(cc3C1C2)OCO4 (stereo not shown) [Compound 83, 2-[10-methoxy-5,8,13,13a-tetrahydro-6H-[1,3]dioxolo[4,5-g]isoquino[3,2-a]isoquinoline-9-yl]-acetic esate]",Activity on reduction of cellular TG accumulation (% of control),"[3]; B, compound dose ≦40 μM",63.0 ± 0.90 % of control
"COc1ccc2c(c1OC(=O)Nc1cccc(C)c1)CN1CCc3cc4c(cc3C1C2)OCO4 (stereo not shown) [Compound 46, (10-methoxy(5,6,7,8,13,13a-hexahydro-2H-1,3-dioxolano[4,5-g]isoquinolino[3,2-a]isoquinolin-9-yloxy))-N-(3-methylphenyl)carboxamide]",Activity on LDLR mRNA expression (Fold of control),[4],1.80 ± 0.16 Fold of control
same,Activity on DiI-LDL uptake,"[2]; A, compound dose ≦10 μM",++
"COc1cc2c(cc1OC)C1Cc3cccc(OC)c3CN1CC2 (stereo not shown) [Compound 22, 2,3,9-trimethoxy-5,6,7,8,13,13a-hexahydroisoquinolino[3,2-a]isoquinoline]",Activity on reduction of cellular TG accumulation (% of control),"[3]; B, compound dose ≦40 μM",53.35 ± 12.68 % of control
"COc1ccc2c(c1OC(=O)NC(C)C)CN1CCc3cc4c(cc3C1C2)OCO4 (stereo not shown) [Compound 41, (10-methoxy(5,6,7,8,13,13a-hexahydro-2H-1,3-dioxolano[4,5-g]isoquinolino[3,2-a]isoquinolin-9-yloxy))-N-(methylethyl)carboxamide]",Activity on LDLR mRNA expression (Fold of control),[4],1.60 ± 0.03 Fold of control
same,Activity on DiI-LDL uptake,"[2]; A, compound dose ≦10 μM",++
"COc1ccc2c(c1OS(=O)(=O)c1cccs1)CN1CCc3cc4c(cc3C1C2)OCO4 (stereo not shown) [Compound 56, 10-methoxy-5,6,7,8,13,13a-hexahydro-2H-1,3-dioxolano[4,5-g]isoquinolino[3,2-a]isoquinolin-9-yl thiophene-2-sulfonate]",Activity on LDLR mRNA expression (Fold of control),[4],3.18 ± 0.63 Fold of control
same,Activity on DiI-LDL uptake,"[2]; A, compound dose ≦10 μM",+++
"COc1ccc2cc3[n+](cc2c1OC)CCc1cc2c(cc1-3)OCO2 [Berberine, reference compound]",Activity on LDLR mRNA expression (Fold of control),[4],1.30 ± 0.11 Fold of control
same,Activity on DiI-LDL uptake,"[2]; B, compound dose ≦40 μM",+
same,Activity on reduction of cellular TG accumulation (% of control),"[3]; B, compound dose ≦40 μM",70.9 ± 5.4 % of control
"COc1ccc2c(c1OCCO)CN1CCc3cc4c(cc3C1C2)OCO4 (stereo not shown) [Compound 82, 9-O-2-(1′-hydroxy-ethyl)-10-methoxy-5,8,13,13a-tetrahydro-6H-[1,3]dioxolo[4,5-g]isoquino[3,2-a]isoquinoline]",Activity on reduction of cellular TG accumulation (% of control),"[3]; B, compound dose ≦40 μM",53.2 ± 21.3 % of control
"COc1cc(NC(=O)Oc2c(OC)ccc3c2CN2CCc4cc5c(cc4C2C3)OCO5)cc(OC)c1 (stereo not shown) [Compound 45, N-(3,5-dimethoxyphenyl)(10-methoxy(5,6,7,8,13,13a-hexahydro-2H-1,3-dioxolano[4,5-g]isoquinolino[3,2-a]isoquinolin-9-yloxy))carboxamide]",Activity on LDLR mRNA expression (Fold of control),[4],2.09 ± 0.11 Fold of control
same,Activity on DiI-LDL uptake,"[2]; A, compound dose ≦10 μM",++
"COc1ccc2c(c1OC(=O)Nc1ccc(OC(F)(F)F)cc1)CN1CCc3cc4c(cc3C1C2)OCO4 (stereo not shown) [Compound 44, (10-methoxy(5,6,7,8,13,13a-hexahydro-2H-1,3-dioxolano[4,5-g]isoquinolino[3,2-a]isoquinolin-9-yloxy))-N-[4-(trifluoromethoxy)phenyl] carboxamide]",Activity on LDLR mRNA expression (Fold of control),[4],2.20 ± 0.06 Fold of control
same,Activity on DiI-LDL uptake,"[2]; A, compound dose ≦10 μM",++
"COc1ccc2c(c1OS(=O)(=O)c1ccccc1)CN1CCc3cc4c(cc3C1C2)OCO4 (stereo not shown) [Compound 69, 9-benzenesulfonyloxy-10-methoxy-5,8,13,13a-tetrahydro-6H-[1,3]dioxolo[4,5-g]isoquino[3,2-a]isoquinoline]",Activity on LDLR mRNA expression (Fold of control),[4],2.21 ± 0.09 Fold of control
same,Activity on DiI-LDL uptake,"[2]; A, compound dose ≦10 μM",+++
same,Peak Area m/z 466.1,[5]; 0 (control) hours,2.38e8
same,Peak Area m/z 466.1,[5]; 4 h,9.67e7
same,Peak Area m/z 466.1,[5]; 8 h,9.22e7
same,Peak Area m/z 466.1,[5]; 24 h,7.03e7
same,stability under cell culture conditions,"[5]; HepG2 culture medium, up to 24 hours",fairly stable under cell culture conditions
same,Activity on reduction of cellular TG accumulation (% of control),"[3]; A, compound dose ≦10 μM",60.4 ± 7.34 % of control
"COc1ccc2c(c1OCc1ccccc1[N+](=O)[O-])CN1CCc3cc4c(cc3C1C2)OCO4 (stereo not shown) [Compound 26, 10-methoxy-9-[(2-nitrophenyl)methoxy]-5,6,7,8,13,13a-hexahydro-2H-1,3-dioxolano[4,5-g]isoquinolino[3,2-a]isoquinoline]",Activity on LDLR mRNA expression (Fold of control),[4],1.29 ± 0.10 Fold of control
same,Activity on DiI-LDL uptake,"[2]; A, compound dose ≦10 μM",++
"COc1ccc2c(c1O)CN1CCc3cc4c(cc3C1C2)OCO4 (stereo not shown) [Compound 34, 10-methoxy-5,6,7,8,13,13a-hexahydro-2H-1,3-dioxolano[4,5-g]isoquinolino[3,2-a]isoquinoline-9-ol]",Activity on LDLR mRNA expression (Fold of control),[4],1.76 ± 0.17 Fold of control
same,Activity on DiI-LDL uptake,"[2]; A, compound dose ≦10 μM",++
"COc1ccc2c(c1OC(=O)N(C)C)CN1CCc3cc4c(cc3C1C2)OCO4 (stereo not shown) [Compound 43, (10-methoxy(5,6,7,8,13,13a-hexahydro-2H-1,3-dioxolano[4,5-g]isoquinolino[3,2-a]isoquinolin-9-yloxy))-N,N-dimethylcarboxamide]",Activity on LDLR mRNA expression (Fold of control),[4],1.95 ± 0.18 Fold of control
same,Activity on DiI-LDL uptake,"[2]; A, compound dose ≦10 μM",++

# Source: patent publication US20110009628A1, “Compounds and Compositions for Modulating Lipid Levels and Methods of Preparing Same” (priority 2009, published 2011)
